Data: BindingDB's records for doi:10.1021/bi200855m (Whitman College, 2011)

Biological target: T1, 2,6-dichloro-p-hydroquinone 1,2-dioxygenase (Sphingobium chlorophenolicum, UniProt Q9ZBB0)
T1 sequence (Q9ZBB0 whole entry): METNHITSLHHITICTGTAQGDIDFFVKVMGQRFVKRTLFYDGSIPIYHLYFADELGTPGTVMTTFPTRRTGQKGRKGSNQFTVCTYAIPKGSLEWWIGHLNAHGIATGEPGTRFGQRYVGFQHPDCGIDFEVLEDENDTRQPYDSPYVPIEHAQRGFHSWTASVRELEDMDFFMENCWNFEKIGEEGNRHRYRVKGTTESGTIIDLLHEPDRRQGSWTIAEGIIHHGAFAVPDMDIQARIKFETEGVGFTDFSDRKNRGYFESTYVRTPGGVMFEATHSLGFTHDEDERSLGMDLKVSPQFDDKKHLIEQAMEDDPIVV
Test: Inhibition Assay
Method: The rate of the enzymatic reaction was determined by measuring product formation by a spectrophotometric assay developed by Xun and co-worker with modification. The assay was performed on a Cary 50 Bio or Cary 5000 UV-visible spectrophotometer (Varian).

| SMILES | Ki |
| --- | --- |
| Oc1c(Br)cccc1Br | 13 µM |
| Oc1c(Cl)cccc1Cl [2,6-Dichlorophenol] | 48 µM |
